Data on 6 substances can be found in patent publication US9439910B2, “Fe(III)-pyrazine complex compounds for treatment and prophylaxis of iron-deficiency phenomena and iron-deficiency anaemia” (VIFOR (INTERNATIONAL) AG, priority 2012, dated 2016).

In the assay the test system is Male NMRI (SPF) mice. Nature of the assay: Fe utilization in mouse model (low-iron diet, oral administration by stomach tube). The class given is in vivo. The settings on record: for Utilization n 15 d: mice fed low-iron diet (approx. 5 ppm iron) approx. 3 weeks, 2 mg iron/kg body weight/day by stomach tube, days 1-5 and 8-12, utilization on day 15 calculated from hemoglobin increase and body weight increase; for iron utilization compared to the pyridine comparative compound: same mouse model, comparison in words with the comparative example. The protocol: The excellent Fe utilizations that can be accomplished through the Fe complexes according to the invention were measured by means of the following mouse model. Male NMRI (SPF) mice (approximately 3 weeks old) were fed a low-iron diet (approx. 5 ppm iron) for approximately 3 weeks. The iron complexes were then administered to them by means of a stomach tube (2 mg iron/kg body weight/day) for 2 times 5 days, with an interruption of 2 days (days 1-5 and 8-12). 6 mice were the control group (negative control) and were administered with water instead. Utilization on day 15 was calculated from the hemoglobin increase and the body weight increase in accordance with the formula [formula]

“Tris-(3,5,6-trimethylpyrazine-2-ol-1-oxide)iron(III)-complex [Example 4]”: the “Utilization n 15 d” value was 32 abs. % and the “iron utilization compared to the pyridine comparative compound” value is on record as “improved iron utilization”.
As for “Tris-(3,6-dimethylpyrazine-2-ol-1-oxide)-iron(III)-complex [Example 10]”, the “Utilization n 15 d” value is given as 58 abs. % and the “iron utilization compared to the pyridine comparative compound” value is “improved iron utilization”.
With “Tris-(3-methylpyrazine-2-ol-1-oxide)iron(III)-complex [Example 3]”, the “Utilization n 15 d” value was 77 abs. % and the “iron utilization compared to the pyridine comparative compound” value is given as “improved iron utilization”.
With “Tris-(5,6-dimethyl pyrazine-2-ol 1-oxide)iron(III)-complex [Example 2]”, the “Utilization n 15 d” value is reported as 61 abs. % and the “iron utilization compared to the pyridine comparative compound” value was “improved iron utilization”.
On to “Tris-(5-methylpyrazine-2-ol-1-oxide)iron(III)-complex [Example 5]”, for which the “Utilization n 15 d” value is 37 abs. % and the “iron utilization compared to the pyridine comparative compound” value is “improved iron utilization”.
“Tris-(pyrazine-2-ol 1-oxide)iron(III)-complex [Example 1]”: the “Utilization n 15 d” value was 56 abs. % and the “iron utilization compared to the pyridine comparative compound” value is given as “significantly improved iron utilization”.
